Results from patent publication US12723063B2, “GIPR-agonist compounds” (Eli Lilly and Company, priority 2019, dated 2026).

How the values were obtained:
[1] = tested on: CD4+ T cells (CD8+ T cell-depleted PBMCs); assay: CD4+ T cell proliferation assay (immunogenicity assessment); assay type: cell-based, human; conditions: 0.33 μM, 7 days, 10 healthy donors; positive response CDI>2.5
Description: Protein therapeutics that induce less than 30% positive response in the CD4+ T cell proliferation assay are associated with a low risk of immunogenicity. Briefly, to assess the propensity for a clinical immunogenic response to the compounds of Examples 1, 2, 3, 5, and 6, CD8+ T cell-depleted peripheral blood mononuclear cells (PBMCs) are prepared and labeled with carboxyfluorescein diacetate succinimidyl ester (CFSE; Invitrogen) from a cohort of 10 healthy donors with diverse human leukocyte antigen (HLA) class II haplotypes. Each donor is tested in triplicate with 2.0 mL media control, keyhole limpet hemocyanin (KLH: 0.33 μM), and the compounds of Examples 1, 2, 3, 5, and 6 (0.33 μM). Cultures are incubated for 7 days at 37° C. with 5% CO2. On day 7, samples are analyzed by flow cytometry using a BD LSR II Fortessa (Becton Dickinson; Franklin Lakes, NJ), equipped with a high throughput sampler (HTS). Data is analyzed using FlowJo® Software (FlowJo, LLC/TreeStar; Ashland, OR).
• Cell Division Index (“CDI”): proportion of divided CD4+ T cells to the total number of CD4+ T cells in stimulated versus unstimulated samples.

insulin secretion = assay: In vivo effect on insulin secretion (ivGTT) in male Wistar rats; parameters: species or system Wistar rat
Description: Male Wistar rats with femoral artery and femoral vein canulas (Envigo, Indianapolis, IN) (280-320 grams) are single-housed in polycarbonate cages with filter tops. Rats maintained on a 12:12 h light-dark cycle (lights on at 6:00 A.M.) at 21° C. and receive food and deionized water ad libitum. Rats are randomized by body weight and dosed 1.5 mL/kg subcutaneously (s.c.) at doses of 0.3, 1.0, 3, 10, 30, and 100 nmol/kg 16 hours prior to glucose administration then fasted. Animals are weighed and anesthetized with sodium pentobarbital dosed intraperitoneally (i.p.) (65 mg/kg, 30 mg/mL). At time 0, a blood sample is collected into EDTA tubes after which glucose is administered intravenously (i.v.) ([…], 5 mL/kg). Blood samples are collected for glucose and insulin levels at 2, 4, 6, 10, 20 and 30 min post-intravenous administration of glucose. Plasma glucose levels are determined using a clinical chemistry analyzer. Plasma insulin is determined using an electrochemiluminescence assay (Meso Scale, Gaithersburg, MD). […] Results are presented (SEM)(N).

## CC[C@H](C)[C@H](NC(=O)[C@H](CO)NC(=O)[C@H](Cc1ccc(O)cc1)NC(=O)[C@H](CC(=O)O)NC(=O)[C@H](CO)NC(=O)[C@@H](NC(=O)[C@H](Cc1ccccc1)NC(=O)[C@@H](NC(=O)CNC(=O)[C@H](CCC(=O)O)NC(=O)[C@@H](C)NC(=O)[C@@H](N)Cc1ccc(O)cc1)[C@@H](C)O)[C@@H](C)CC)C(=O)N[C@@H](CC(C)C)C(=O)N[C@@H](CC(C)C)C(=O)N[C@@H](CC(=O)O)C(=O)N[C@@H](CCCCN)C(=O)N[C@@H](CCCCNC(=O)COCCOCCNC(=O)COCCOCCNC(=O)CC[C@H](NC(=O)CCCCCCCCCCCCCCCCCCC(=O)O)C(=O)O)C(=O)N[C@@H](C)C(=O)N[C@@H](CCC(N)=O)C(=O)NC(C)(C)C(=O)N[C@@H](CC(=O)O)C(=O)N[C@@H](Cc1ccccc1)C(=O)N[C@H](C(=O)N[C@@H](CC(N)=O)C(=O)N[C@@H](Cc1c[nH]c2ccccc12)C(=O)N[C@@H](CC(C)C)C(=O)N[C@@H](CC(C)C)C(=O)N[C@@H](C)C(=O)N[C@@H](CCC(N)=O)C(=O)NCC(=O)N1CCC[C@H]1C(=O)N[C@@H](CO)C(=O)N[C@@H](CO)C(=O)NCC(=O)N[C@@H](C)C(=O)N1CCC[C@H]1C(=O)N1CCC[C@H]1C(=O)N1CCC[C@H]1C(=O)N[C@@H](CO)C(N)=O)C(C)C [Example 1]
[1]
  % Donor Response (n = 10): 0%

## CC[C@H](C)[C@H](NC(=O)[C@H](CO)NC(=O)[C@H](Cc1ccc(O)cc1)NC(=O)[C@H](CC(=O)O)NC(=O)[C@H](CO)NC(=O)[C@@H](NC(=O)[C@H](Cc1ccccc1)NC(=O)[C@@H](NC(=O)CNC(=O)[C@H](CCC(=O)O)NC(=O)[C@@H](C)NC(=O)[C@@H](N)Cc1ccc(O)cc1)[C@@H](C)O)[C@@H](C)CC)C(=O)N[C@@H](CC(C)C)C(=O)N[C@@H](CC(C)C)C(=O)N[C@@H](CC(=O)O)C(=O)N[C@@H](CCCCN)C(=O)N[C@@H](CCCCNC(=O)COCCOCCNC(=O)COCCOCCNC(=O)CC[C@H](NC(=O)CCCCCCCCCCCCCCCCC(=O)O)C(=O)O)C(=O)N[C@@H](C)C(=O)N[C@@H](CCC(N)=O)C(=O)NC(C)(C)C(=O)N[C@@H](CC(=O)O)C(=O)N[C@@H](Cc1ccccc1)C(=O)N[C@H](C(=O)N[C@@H](CC(N)=O)C(=O)N[C@@H](Cc1c[nH]c2ccccc12)C(=O)N[C@@H](CC(C)C)C(=O)N[C@@H](CC(C)C)C(=O)N[C@@H](C)C(=O)N[C@@H](CCC(N)=O)C(=O)NCC(=O)N1CCC[C@H]1C(=O)N[C@@H](CO)C(=O)N[C@@H](CO)C(=O)NCC(=O)N[C@@H](C)C(=O)N1CCC[C@H]1C(=O)N1CCC[C@H]1C(=O)N1CCC[C@H]1C(=O)N[C@@H](CO)C(N)=O)C(C)C [Example 2]
[1]
  % Donor Response (n = 10): 10%

## CC[C@H](C)[C@H](NC(=O)[C@H](Cc1ccccc1)NC(=O)[C@@H](NC(=O)CNC(=O)[C@H](CCC(=O)O)NC(=O)C(C)(C)NC(=O)[C@@H](N)Cc1ccc(O)cc1)[C@@H](C)O)C(=O)N[C@@H](CO)C(=O)N[C@@H](CC(=O)O)C(=O)N[C@@H](Cc1ccc(O)cc1)C(=O)N[C@@H](CO)C(=O)N[C@H](C(=O)N[C@@](C)(CC(C)C)C(=O)N[C@@H](CC(C)C)C(=O)N[C@@H](CC(=O)O)C(=O)N[C@@H](CCCCN)C(=O)N[C@@H](CCCCNC(=O)COCCOCCNC(=O)COCCOCCNC(=O)CC[C@H](NC(=O)CCCCCCCCCCCCCCCCCCC(=O)O)C(=O)O)C(=O)N[C@@H](Cc1c[nH]cn1)C(=O)N[C@@H](CCC(N)=O)C(=O)NC(C)(C)C(=O)N[C@@H](CC(=O)O)C(=O)N[C@@H](Cc1ccccc1)C(=O)N[C@H](C(=O)N[C@@H](CCC(=O)O)C(=O)N[C@@H](Cc1ccncc1)C(=O)N[C@@H](CC(C)C)C(=O)N[C@@H](CC(C)C)C(=O)N[C@@H](CCC(=O)O)C(=O)N[C@@H](C)C(=O)NCC(=O)N1CCC[C@H]1C(=O)N[C@@H](CO)C(=O)N[C@@H](CO)C(=O)NCC(=O)N[C@@H](C)C(=O)N1CCC[C@H]1C(=O)N1CCC[C@H]1C(=O)N1CCC[C@H]1C(=O)N[C@@H](CO)C(N)=O)C(C)C)[C@@H](C)CC [Example 3]
[1]
  % Donor Response (n = 10): 0%

## CC[C@H](C)[C@H](NC(=O)[C@H](CCCCN)NC(=O)[C@H](CC(=O)O)NC(=O)[C@H](CC(C)C)NC(=O)[C@](C)(CC(C)C)NC(=O)[C@@H](NC(=O)[C@H](CO)NC(=O)[C@H](Cc1ccc(O)cc1)NC(=O)[C@H](CC(=O)O)NC(=O)[C@H](CO)NC(=O)[C@@H](NC(=O)[C@H](Cc1ccccc1)NC(=O)[C@@H](NC(=O)CNC(=O)[C@H](CCC(=O)O)NC(=O)C(C)(C)NC(=O)[C@@H](N)Cc1ccc(O)cc1)[C@@H](C)O)[C@@H](C)CC)[C@@H](C)CC)C(=O)N[C@@H](Cc1c[nH]cn1)C(=O)N[C@@H](CCC(N)=O)C(=O)NC(C)(C)C(=O)N[C@@H](CC(=O)O)C(=O)N[C@@H](Cc1ccccc1)C(=O)N[C@H](C(=O)N[C@@H](CCC(=O)O)C(=O)N[C@@H](Cc1ccc(O)cc1)C(=O)N[C@@H](CCCCNC(=O)COCCOCCNC(=O)COCCOCCNC(=O)CC[C@H](NC(=O)CCCCCCCCCCCCCCCCCCC(=O)O)C(=O)O)C(=O)N[C@@H](CC(C)C)C(=O)N[C@@H](CCC(=O)O)C(=O)NCC(=O)NCC(=O)N1CCC[C@H]1C(=O)N[C@@H](CO)C(=O)N[C@@H](CO)C(=O)NCC(=O)N[C@@H](C)C(=O)N1CCC[C@H]1C(=O)N1CCC[C@H]1C(=O)N1CCC[C@H]1C(=O)N[C@@H](CO)C(N)=O)C(C)C [Example 5]
Insulin secretion; 0.3 nmol/kg s.c. 16 hours prior to glucose
  insulin secretion during intravenous glucose tolerance test: 36.2
Insulin secretion; 1.0 nmol/kg s.c. 16 hours prior to glucose
  insulin secretion during intravenous glucose tolerance test: 45.3
Insulin secretion; 3.0 nmol/kg s.c. 16 hours prior to glucose
  insulin secretion during intravenous glucose tolerance test: 80.6
Insulin secretion; 10 nmol/kg s.c. 16 hours prior to glucose
  insulin secretion during intravenous glucose tolerance test: 122.0
Insulin secretion; 30 nmol/kg s.c. 16 hours prior to glucose
  insulin secretion during intravenous glucose tolerance test: 144
Insulin secretion; 100 nmol/kg s.c. 16 hours prior to glucose
  insulin secretion during intravenous glucose tolerance test: 212.7
Insulin secretion; s.c., n = 1
  Insulin secretion (ivGTT) ED50: 18.4 (n = 1) nmol/kg
[1]
  % Donor Response (n = 10): 0%

## CC[C@H](C)[C@H](NC(=O)[C@H](CCCN)NC(=O)[C@H](CC(=O)O)NC(=O)[C@H](CC(C)C)NC(=O)[C@](C)(CC(C)C)NC(=O)[C@@H](NC(=O)[C@H](CO)NC(=O)[C@H](Cc1ccc(O)cc1)NC(=O)[C@H](CC(=O)O)NC(=O)[C@H](CO)NC(=O)[C@@H](NC(=O)[C@H](Cc1ccccc1)NC(=O)[C@@H](NC(=O)CNC(=O)[C@H](CCC(=O)O)NC(=O)C(C)(C)NC(=O)[C@@H](N)Cc1ccc(O)cc1)[C@@H](C)O)[C@@H](C)CC)[C@@H](C)CC)C(=O)N[C@@H](Cc1c[nH]cn1)C(=O)N[C@@H](CCC(N)=O)C(=O)NC(C)(C)C(=O)N[C@@H](CC(=O)O)C(=O)N[C@@H](Cc1ccccc1)C(=O)N[C@H](C(=O)N[C@@H](CCC(=O)O)C(=O)N[C@@H](Cc1ccc(O)cc1)C(=O)N[C@@H](CCCCNC(=O)COCCOCCNC(=O)COCCOCCNC(=O)CC[C@H](NC(=O)CCCCCCCCCCCCCCCCCCC(=O)O)C(=O)O)C(=O)N[C@@H](CC(C)C)C(=O)N[C@@H](CCC(=O)O)C(=O)NCC(=O)NCC(=O)N1CCC[C@H]1C(=O)N[C@@H](CO)C(=O)N[C@@H](CO)C(=O)NCC(=O)N[C@@H](C)C(=O)N1CCC[C@H]1C(=O)N1CCC[C@H]1C(=O)N1CCC[C@H]1C(=O)N[C@@H](CO)C(N)=O)C(C)C [Example 6]
[1]
  % Donor Response (n = 10): 0%
